In the test the test system is IFNα-induced pSTAT5 (pY694) in CD3 positive cells of human whole blood. Put plainly: IFNα-Induced STAT Phosphorylation in Human Whole Blood. As to conditions: 1 h compound incubation, 1000 U/mL recombinant human IFNα A/D for 15 min, pSTAT5 in CD3 positive population, read-out: Human WB IFNα-Induced Stat Phosph. (IC50). Format: cell-based. As to the method: IFNα-Induced STAT Phosphorylation in Human Whole Blood
After an hour long incubation with compound, human whole blood (drawn with either EDTA or ACD-A as anti-coagulant) was stimulated with 1000 U/mL recombinant human IFNα A/D (R&D Systems 11200-2) for 15 min. The stimulation was stopped by adding Fix/Lyse buffer (BD 558049). Cells were stained with a CD3 FITC antibody (BD 555916), washed, and permeabilized on ice using Perm III buffer (BD 558050). Cells were then stained with an Alexa-Fluor 647 pSTAT5 (pY694) antibody (BD 612599) for 30 min prior to analysis on the FACS Canto II. The amount of pSTAT5 expression was quantitated by median fluorescence intensity after gating on the CD3 positive population.
IFNα-Induced STAT Phosphorylation in Human Whole Blood Inhibition Data ND—no data available

Read-outs that look alike come from different tables or passages of the source.

In general, IC50 refers to the concentration that gives 50% inhibition.

As for `[2H]C([2H])([2H])NC(=O)c1nnc(NC(=O)C2CC2)cc1Nc1cccc(-c2nc(CN3CCN(C(C)=O)CC3=O)no2)c1OC` [Example 140], under “Homo sapiens”, the IC50 was determined as 330 nM.
Still for that read-out and setting: under `[2H]C([2H])([2H])NC(=O)c1nnc(NC(=O)C2CC2)cc1Nc1cccc(-c2ncc(C(=O)N3CC(C)(O)C3)s2)c1OC` [Example 346] stands 90 nM; under `[2H]C([2H])([2H])NC(=O)c1nnc(NC(=O)C2CC2)cc1Nc1cccc(-c2noc(C3(C(=O)N4CCOCC4)CC3)n2)c1OC` [Example 28], 210 nM; under `[2H]C([2H])([2H])NC(=O)c1nnc(NC(=O)C2CC2)cc1Nc1cccc(-c2nc(C)c(C(=O)NCC3CCN(C)C3)s2)c1OC` (centres unmarked) [Example 368], 350 nM.
The same measure, in the same setting: in the case of `[2H]C([2H])([2H])NC(=O)c1nnc(NC(=O)C2CC2)cc1Nc1cccc(-c2cnn(CCO)n2)c1OC` [Example 450] it was 200 nM; in that of `[2H]C([2H])([2H])NC(=O)c1nnc(NC(=O)C2CC2)cc1Nc1cccc(-c2ncc(CC(=O)NCCC3CCCN3C)s2)c1OC` (centres unmarked) [Example 254], 5430 nM; in that of `[2H]C([2H])([2H])NC(=O)c1nnc(Nc2ccc(C)nn2)cc1Nc1cccc(-c2ncc(C(=O)N3CCS(=O)(=O)CC3)s2)c1OC` [Example 383], 30 nM.
The same measure, in the same setting: in the case of `[2H]C([2H])([2H])NC(=O)c1cnc(NC(=O)C2CC2)cc1Nc1cccc(-c2nc(C(C)N3CCN(S(C)(=O)=O)CC3)no2)c1OC` (centres unmarked) [Example 223] it was 690 nM; in that of `[2H]C([2H])([2H])NC(=O)c1nnc(NC(=O)C2CC2)cc1Nc1cccc(-c2ccn(CCNS(C)(=O)=O)n2)c1OC` [Example 466], 420 nM; in that of `[2H]C([2H])([2H])NC(=O)c1nnc(NC(=O)C2CC2)cc1Nc1cccc(-c2nc(COCc3ccccc3)no2)c1OC` [Example 144], 1000 nM.
Take `COc1c(Nc2cc(NC(=O)C3CC3)nnc2C(N)=O)cccc1-c1ncc(C(=O)NC2CCC(N(C)C)CC2)s1` (centres unmarked) [Example 405]: for the setting “Homo sapiens”, the half-maximal inhibitory concentration (IC50) came to 90 nM.
Consider `[2H]C([2H])([2H])NC(=O)c1nnc(NC(=O)C2CC2)cc1Nc1cccc(-c2ncc(C(=O)NCCC3CCCN3C)s2)c1OC` (centres unmarked) [Example 299], for which the IC50 (Homo sapiens) was determined as 14 nM.
On the same count and under the same terms, in the case of `[2H]C([2H])([2H])NC(=O)c1nnc(NC(=O)C2CC2)cc1Nc1cccc(-c2cc(C(=O)N3CCCCC3)n(C)n2)c1OC` [Example 479] it was 110 nM; in that of `[2H]C([2H])([2H])NC(=O)c1nnc(NC(=O)C2CC2)cc1Nc1cccc(-c2noc(CCC(=O)N3CCOCC3)n2)c1OC` [Example 25], 430 nM; in that of `[2H]C([2H])([2H])NC(=O)c1cnc(NC(=O)C2CC2)cc1Nc1cccc(-c2nc(CN3CCOCC3)no2)c1OC` [Example 125], 60 nM.
Same read-out and setting: under `COc1c(Nc2cc(NC(=O)C3CC3)nnc2C(N)=O)cccc1-c1nccs1` [Example 406] stands 180 nM; under `CCS(=O)(=O)N1CCN(C(=O)c2cnc(-c3cccc(Nc4cc(NC(=O)C5CC5)nnc4C(N)=O)c3OC)s2)CC1` [Example 402], 40 nM.
On the same count and under the same terms, under `[2H]C([2H])([2H])NC(=O)c1nnc(NC(=O)C2CC2)cc1Nc1cccc(-c2cc(C(=O)NCCN(C)C)n(C)n2)c1OC` [Example 536] stands 650 nM.
Take `[2H]C([2H])([2H])NC(=O)c1cnc(NC(=O)C2CC2)cc1Nc1cccc(-c2ccn(CCNC(=O)COC)n2)c1OC` [Example 473]: the concentration for half-maximal inhibition (IC50) is above 10000 nM.
As for `[2H]C([2H])([2H])NC(=O)c1cnc(Nc2cc(C)ccn2)cc1Nc1cccc(-c2noc(COC)n2)c1OC` [Example 99], the IC50 (Homo sapiens) amounted to 40 nM.
On the same count and under the same terms, in the case of `[2H]C([2H])([2H])NC(=O)c1nnc(NC(=O)C2CC2)cc1Nc1cccc(-c2nc(CN3CCN(C(=O)CC#N)CC3=O)no2)c1OC` [Example 139] it was 410 nM; in that of `[2H]C([2H])([2H])NC(=O)c1nnc(NC(=O)C2CC2)cc1Nc1cccc(-c2noc(CNS(C)(=O)=O)n2)c1OC` [Example 32], 80 nM; in that of `[2H]C([2H])([2H])NC(=O)c1nnc(NC(=O)C2CC2)cc1Nc1cccc(-c2nc(/C=C/c3ccccc3)no2)c1OC` [Example 236], above 10000 nM.

Values taken from US12240840B2, “Amide-substituted heterocyclic compounds for the treatment of conditions related to the modulation of IL-12, IL-23 and/or IFN-alpha” (BRISTOL-MYERS SQUIBB COMPANY, priority 2018, dated 2025).
